Results as given in PMC4444998 (Journal of Natural Products, 2015).

Assays:
Type in all cases: biochemical
[1] = tested on: bovine α-chymotrypsin; assay: Chymotrypsin inhibition assay (Ala-Ala-Phe-AMC, fluorimetry); details: for inhibition of chymotrypsin activity: cyclotides at 25 µM and 75 µM, triplicate
Method: (§1) Inhibitory activity was performed in triplicate in 96-well microtiter plates. Bovine trypsin (10 μL of a 10 ng/μL solution; Roche, Basel, Switzerland) or bovine α-chymotrypsin (10 μL of a 2.5 ng/μL solution; Sigma-Aldrich) was preincubated for 15 min at 37 °C with buffer (125 μL of a 20 mM Tris-HCl solution, pH 8.0) and with 3 μL of the cyclotide solution or ddH2O as negative control. After preincubation, trypsin substrate (Bz-Arg-AMC-HCl, 10 μL of a 3 mM solution prepared in 40% 1,4-dioxane; Bachem, Bubendorf, Switzerland) or chymotrypsin substrate (Ala-Ala-Phe-AMC, 10 μL of a 3 mM solution prepared in 40% 1,4-dioxane; Sigma-Aldrich), respectively, was added, and the reaction was incubated while shaking (90 rpm) for 1 h at 37 °C. The reaction was stopped with sodium acetate (150 μL, 1 M, pH 4), and the formation of AMC was measured by fluorimetry. The excitation and emission wavelengths were 360 ± 40 and 485 ± 20 nm, respectively. Phenylmethane-sulfonylfluoride (PMSF; 3 μL of a 5 mM solution in DMSO) was used as a positive control of inhibition; additional controls with DMSO solution only were also performed. Data were calculated as percentage of inhibition and are presented as mean ± STDEV (of three replicates).

[2] = molecular target: T1, human prolyl oligopeptidase (POP) (Homo sapiens, UniProt P48147); assay: Prolyl oligopeptidase inhibition assay (Z-Gly-Pro-AMC, fluorimetry)
T1 construct: made in house
T1 sequence (P48147 1-710): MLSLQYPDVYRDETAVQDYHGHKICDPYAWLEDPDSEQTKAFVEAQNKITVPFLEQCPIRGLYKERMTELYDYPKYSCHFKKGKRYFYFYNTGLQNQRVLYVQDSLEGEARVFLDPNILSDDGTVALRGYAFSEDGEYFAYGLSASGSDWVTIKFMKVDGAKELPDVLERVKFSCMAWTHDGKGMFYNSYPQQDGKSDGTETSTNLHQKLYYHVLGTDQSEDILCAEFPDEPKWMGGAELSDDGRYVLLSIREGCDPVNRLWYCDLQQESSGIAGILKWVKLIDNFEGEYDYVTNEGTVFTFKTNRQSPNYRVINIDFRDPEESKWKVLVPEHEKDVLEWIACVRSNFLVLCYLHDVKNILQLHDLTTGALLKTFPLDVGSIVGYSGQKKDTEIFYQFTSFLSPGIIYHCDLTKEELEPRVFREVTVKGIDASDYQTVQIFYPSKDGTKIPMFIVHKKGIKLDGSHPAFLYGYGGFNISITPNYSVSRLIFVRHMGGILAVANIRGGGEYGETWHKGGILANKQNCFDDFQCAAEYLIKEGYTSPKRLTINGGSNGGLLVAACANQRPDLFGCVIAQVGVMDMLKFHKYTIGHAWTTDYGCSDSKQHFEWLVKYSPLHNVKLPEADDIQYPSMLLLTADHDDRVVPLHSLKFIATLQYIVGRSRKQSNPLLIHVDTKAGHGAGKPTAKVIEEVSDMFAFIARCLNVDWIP

[3] = tested on: Bovine trypsin; assay: Trypsin inhibition assay (Bz-Arg-AMC, fluorimetry); details: for inhibition of trypsin protease activity: cyclotides kalata B1 or psysol 2 at 25 µM and 75 µM, respectively, triplicate
Method: as §1

CC(C)C[C@@H]1NC(=O)CNC(=O)[C@H](CC(N)=O)NC(=O)[C@H](CCCNC(=N)N)NC(=O)[C@H]([C@@H](C)O)NC(=O)[C@@H]2CSSC[C@@H]3NC(=O)[C@H]([C@@H](C)O)NC(=O)CNC(=O)CNC(=O)[C@H](C(C)C)NC(=O)[C@@H]4CSSC[C@H](NC(=O)[C@H]([C@@H](C)O)NC(=O)[C@H](CSSC[C@H](NC(=O)[C@H](C(C)C)NC(=O)[C@@H]5CCCN5C1=O)C(=O)NCC(=O)N[C@@H](CCC(=O)O)C(=O)N[C@@H]([C@@H](C)O)C(=O)N4)NC(=O)CNC(=O)[C@@H]1CCCN1C(=O)[C@H]([C@@H](C)O)NC(=O)[C@H](CC(N)=O)NC3=O)C(=O)N[C@@H](CO)C(=O)N[C@@H](Cc1c[nH]c3ccccc13)C(=O)N1CCC[C@H]1C(=O)N[C@@H](C(C)C)C(=O)N2 [kalata B1]
inhibition of chymotrypsin activity [1]: had no effect
selectivity toward inhibition of POP over trypsin and chymotrypsin ([2]; POP IC50 compared with no inhibition of trypsin/chymotrypsin at 25 and 75 μM): at least an order of magnitude more selective
inhibition of trypsin protease activity [3]: not inhibited

CC[C@H](C)[C@@H]1NC(=O)[C@@H]2CCCN2C(=O)[C@H](CC(C)C)NC(=O)CNC(=O)[C@H](CC(N)=O)NC(=O)[C@H](CCCNC(=N)N)NC(=O)[C@H]([C@@H](C)O)NC(=O)[C@@H]2CSSC[C@@H]3NC(=O)[C@H]([C@@H](C)O)NC(=O)CNC(=O)CNC(=O)[C@H](C(C)C)NC(=O)[C@@H]4CSSC[C@H](NC(=O)[C@H]([C@@H](C)O)NC(=O)[C@H](CSSC[C@H](NC1=O)C(=O)NCC(=O)N[C@@H](CCC(=O)O)C(=O)N[C@@H](CO)C(=O)N4)NC(=O)CNC(=O)[C@@H]1CCCN1C(=O)[C@H]([C@@H](C)O)NC(=O)[C@H](CC(N)=O)NC3=O)C(=O)N[C@@H]([C@@H](C)O)C(=O)N[C@@H](Cc1c[nH]c3ccccc13)C(=O)N1CCC[C@H]1C(=O)N[C@@H](C(C)C)C(=O)N2 [psysol 2 (1), psysol 2]
inhibition of chymotrypsin activity [1]: had no effect
IC50 ([2]; POP enzyme inhibition potency IC50, synthetic cyclotide, mean of three replicates): 27.8 µM
inhibition of trypsin protease activity [3]: not inhibited

O=S(=O)(F)Cc1ccccc1 [PMSF, Phenylmethane-sulfonylfluoride]
inhibition of chymotrypsin activity (positive control) ([1]; 100 µM): completel y blocked
inhibition of trypsin activity (positive control) ([3]; 100 µM): able to inhibit
